# Where a SMILES comes first, the peptide text is derived from it. Bridges are numbered along the chain shown (N, C = ends). Roman numbers before positions name the chains, in order.
# Tests used:
# [1] = test system: biotinylated 13-residue peptides (A-I) spanning the C-terminal region of MSP2; assay: Fine specificity of antisera by peptide array ELISA (peptides A-I); assay type: in vivo, mouse; settings: individual sera of mice immunised with peptide-KLH conjugate or MSP2 mix, diluted 1:1000; indirect ELISA; peptides C-D span 9H4 epitope, E-G span 4D11 epitope
# Protocol: Peptide was conjugated to maleimide-activated KLH (Sigma-Aldrich) following the manufacturer’s protocol. Briefly, 1 mg of each peptide was mixed with 1 mg KLH in the provided buffer for a 200-fold molar excess of peptide to carrier protein. The reaction mixture was degassed under nitrogen and mixed at room temperature (RT) for 2 h. Any unreacted peptide was removed by dialysis against PBS using a 10 kDa cut-off membrane. The extent of conjugation was determined using Ellman’s reagent. Peptide-KLH conjugate stock solution was stored at 4 °C until further use. Prior to immunisation, peptide-KLH conjugates were diluted to 1 mg/mL in PBS and formulated with Montanide ISA720 at an antigen:adjuvant ratio of 3:7 and a final concentration of 0.3 mg/mL. The 3D7 + FC27 MSP2 mix was formulated using 0.15 mg/mL of each allelic form. Female C57BL/6 mice (n = 6 per group) were inoculated subcutaneously with 100 µL containing 30 µg of antigen at weeks 0, 4 and 8, then euthanised at week 10. Sera were collected and stored at −80 °C.
# (§1) To determine peptide-KLH binding to 4D11 and 9H4, Maxisorp 96-well microtitre plates (Nunc, Rochester, NY, USA) were coated overnight at 4 °C with 2 µg/mL peptide-KLH in PBS. The plates were blocked with 1% BSA in PBS for 1 h before adding 100 µL of 4D11 and 9H4 IgG in eleven half log10 serial dilutions starting from stock at 1 µg/mL. After 1 h incubation at 4 °C and washing, antigen-bound antibodies were detected with goat anti-mouse IgG (1:2000 dilution) and freshly prepared 2,2-azinobis(3-ethylbenzthiazolinesulfonic acid (ABTS) substrate (1 mm) in citric acid buffer, pH 4.2, containing […]. The absorbance was read at 405 nm using a microplate reader. For determination of peptide-specific antibody titres, peptide-BSA conjugate was coated on the plate at 2 µg/mL. Individual mouse sera were added at a starting dilution of 1000-fold with six half log10 serial dilutions. Endpoint titres were taken as the x-axis intercept of the dilution curve at an absorbance value of three standard deviations (s.d.) greater than OD405 for naïve mouse serum. The fine specificities of the antisera were determined by ELISA using an array of nine biotinylated 13-residue peptides (A-I), which overlap by 2 or 3 residues and spanned the C-terminal region of MSP2 [11, 13]. Maxisorp 96-well microtitre plates (Nunc) were coated overnight at 4 °C with 1 µg/mL streptavidin in PBS. The plates were blocked with 1% BSA in PBS for 2 h before adding 1:500 biotinylated peptides. Individual sera samples were diluted 1:1000 in blocking solution before addition to the peptide array. Antibody was detected with the same protocol as mentioned above.
# To characterise the response against these dimeric peptides further, the specificity of the induced antibodies was determined by indirect ELISA using an array of nine biotinylated peptides that spanned the epitopes recognised by the 4D11 and 9H4 mAbs (peptides A-I) (Table 3). Peptides C and D spanned the 9H4 epitope, whilst peptides E to G spanned the 4D11 epitope. […] However, the response against MSP2 was largely dominated by a single mouse in the group.
# 3D7 merozoites = assay: Merozoite ELISA with pooled mouse sera, 3D7 merozoites; assay type: in vivo, P. falciparum; settings: pooled sera of immunised mice, two-fold dilutions from 1:500; merozoites 1 × 10^7/well; OD 450 nm; rank order in words
# Protocol: (§2) The reactivity of mouse polyclonal antibodies with merozoites was determined by ELISA using merozoites from both the 3D7 and FC27 (D10 clone) strains of P. falciparum. The parasites were cultured in human erythrocytes at a haematocrit of 3% in RPMI media supplemented with […]. Viable merozoites were isolated as described previously. Highly synchronised late-stage schizonts were magnet-purified via a MACS magnet separation column (Miltenyi Biotec, Macquarie Park, Australia) and treated with E64 protease inhibitor (ThermoFisher Scientific, Scoresby, Australia) until mature merozoites were formed. Merozoites were released forcing them through a 1.2 µm filter.
# (§3) Purified whole merozoites were resuspended in PBS supplemented with a cocktail of protease inhibitors (Roche, Castle Hill, Australia). Isolated merozoites were used to coat Nunc Maxisorp™ plates at 1 × 10^7/well and incubated overnight at 4 °C. The plates were then blocked with 1% casein in PBS at 37 °C for 2 h (or overnight at 4 °C). Pooled sera samples were added to wells at two-fold serial dilution in duplicate with a starting dilution of 1:500 and incubated at RT for 1 h. The plates were further incubated with HRP-conjugated goat anti-mouse IgG antibody diluted at 1:1000 in 0.1% casein in PBS at RT for 1 h. The plates were washed six times with PBS between each incubation step. Finally, 3,3′,5,5′-tetramethylbenzidine (TMB) substrate (Thermo Fisher Scientific, Scoresby, Australia) was added to the wells for the development of colour for 15 min and the reaction was stopped with 1 M sulfuric acid. The OD was measured at 450 nm.
# The ability to induce an immune response that can recognise parasite MSP2 is essential in the design of an MSP2-based peptide vaccine. We isolated merozoites from both 3D7 and FC27 (D10 clone) strains of P. falciparum, coated them on ELISA plates and probed them with sera from the immunised mice (Figure 6). mAb 4D11 and the MSP2 mix pre-bleed were also included as positive and negative controls, respectively.
# [2] = test system: FC27 (D10 clone) merozoites; assay: Merozoite ELISA with pooled mouse sera, FC27 merozoites; assay type: in vivo, P. falciparum; settings: pooled sera of immunised mice, two-fold dilutions from 1:500; merozoites 1 × 10^7/well; OD 450 nm; rank order in words
# Protocol: as §2
# as §3, with “Finally, 3,3′,5,5′-tetramethylbenzidine (TMB) substrate (Thermo Fisher Scientific, Scoresby, Australia) was added to the wells for the development of colour for 15 min and the reaction was stopped with 1 M sulfuric acid.” left out, “nm. […]” for “nm.”
# 4D11 IgG = assay: ELISA binding of 4D11 IgG against BSA-peptide conjugates; parameters: species or system mouse; settings: peptide maleimide-conjugated to BSA coated on plate
# Protocol: as §1, with “To determine peptide-KLH binding to 4D11 and 9H4, Maxisorp 96-well microtitre plates (Nunc, Rochester, NY, USA) were coated overnight at 4 °C with 2 µg/mL peptide-KLH in PBS.” left out, “Maxisorp 96-well microtitre plates (Nunc) were coated overnight at 4 °C with 1 µg/mL streptavidin in PBS. The plates were blocked with 1% BSA in PBS for 2 h before adding 1:500 biotinylated peptides. Individual sera samples were diluted 1:1000 in blocking solution before addition to the peptide array.” left out
# Anti-peptide antibody titres in the sera of immunised mice were determined using ELISA plates coated with the corresponding peptide-bovine serum albumin (BSA) conjugates. […]
Compound,specificity of the induced antibodies (peptide array A-I) [1],reactivity of pooled sera with 3D7 merozoites (3D7 merozoites),reactivity of pooled sera with FC27 merozoites [2],4D11 IgG binding to BSA-peptide conjugate (4D11 IgG)
CC(=O)N[C@@H](CC(N)=O)C(=O)N[C@@H](CCCCN)C(=O)N[C@@H](CCC(=O)O)C(=O)N[C@@H](CC(N)=O)C(=O)N[C@@H](CSSC[C@H](NC(=O)[C@H](CC(N)=O)NC(=O)[C@H](CCC(=O)O)NC(=O)[C@H](CCCCN)NC(=O)[C@H](CC(N)=O)NC(C)=O)C(=O)NCC(=O)N[C@@H](C)C(=O)N[C@@H](C)C(=O)N[C@@H](CS)C(N)=O)C(=O)NCC(=O)N[C@@H](C)C(=O)N[C@@H](C)C(N)=O [Peptide D1] (I: Ac-NKENCGAAC-NH2 / II: Ac-NKENCGAA-NH2; disulfide I:5-II:5),almost exclusively directed to the 4D11 epitope,weak reactivity,weak reactivity,–
"SKWICANRSVCPI [non-relevant peptide maleimide-conjugated to BSA, linker control]",–,–,–,no 4D11 IgG binding
